Marks after values point to notes of the source that are not given here.
Columns and labels:
Type in all cases: in vivo
[1] = tested on: Alternaria solani; experiment: Test E: tomato early blight, preventive spray on tomato seedlings, visual disease rating; conditions: 100 = 100% disease control, 0 = no disease control relative to controls
Text: General protocol for preparing test suspensions for Tests A-F: […] The resulting test suspensions were then used in Tests A-F. The test suspensions were sprayed to the point of run-off on the test plants. All results are for 200 ppm (equivalent to a rate of 500 g/ha) except where followed by “*” which indicates 40 ppm. The test suspension was sprayed to the point of run-off on tomato seedlings. […] A dash (-) indicates no test results. All results are for 200 ppm except where followed by “*”, which indicates 40 ppm.

[2] = tested on: Septoria nodorum; experiment: Test D: wheat glume blotch, preventive spray on wheat seedlings, visual disease rating; conditions: 100 = 100% disease control, 0 = no disease control relative to controls
Text: General protocol for preparing test suspensions for Tests A-F: […] The resulting test suspensions were then used in Tests A-F. The test suspensions were sprayed to the point of run-off on the test plants. All results are for 200 ppm (equivalent to a rate of 500 g/ha) except where followed by “*” which indicates 40 ppm. The test suspension was sprayed to the point of run-off on wheat seedlings. The following day the seedlings were inoculated with a spore suspension of Septoria nodorum (the causal agent of wheat glume blotch) and incubated in a saturated atmosphere at 20° C. for 48 h, and then moved to a growth chamber at 20° C. for 7 days, after which time visual disease ratings were made. […] A dash (-) indicates no test results. All results are for 200 ppm except where followed by “*”, which indicates 40 ppm.

[3] = tested on: Septoria tritici; experiment: Test C: wheat leaf blotch, preventive spray on wheat seedlings, visual disease rating; conditions: 100 = 100% disease control, 0 = no disease control relative to controls; for pest or weed control at 40 ppm: Zymoseptoria tritici, 504 h
Text: General protocol for preparing test suspensions for Tests A-F: […] The resulting test suspensions were then used in Tests A-F. The test suspensions were sprayed to the point of run-off on the test plants. All results are for 200 ppm (equivalent to a rate of 500 g/ha) except where followed by “*” which indicates 40 ppm. The test suspension was sprayed to the point of run-off on wheat seedlings. The following day the seedlings were inoculated with a spore suspension of Septoria tritici (the causal agent of wheat leaf blotch) and incubated in saturated atmosphere at 20° C. for 48 h, and moved to a growth chamber at 20° C. for 19 additional days, after which time visual disease ratings were made. […] A dash (-) indicates no test results. All results are for 200 ppm except where followed by “*”, which indicates 40 ppm.

[4] = tested on: Botrytis cinerea; experiment: Test F: tomato Botrytis, preventive spray on tomato seedlings, visual disease rating; conditions: 100 = 100% disease control, 0 = no disease control relative to controls
Text: General protocol for preparing test suspensions for Tests A-F: […] The resulting test suspensions were then used in Tests A-F. The test suspensions were sprayed to the point of run-off on the test plants. All results are for 200 ppm (equivalent to a rate of 500 g/ha) except where followed by “*” which indicates 40 ppm. The test suspension was sprayed to the point of run-off on tomato seedlings. The following day the seedlings were inoculated with a spore suspension of Botrytis cinerea (the causal agent of tomato Botrytis) and incubated in saturated atmosphere at 20° C. for 48 h, and then moved to a growth chamber at 24° C. for 3 days, after which time visual disease ratings were made. […] A dash (-) indicates no test results. All results are for 200 ppm except where followed by “*”, which indicates 40 ppm.

[5] = tested on: Erysiphe graminis; experiment: Test A: wheat powdery mildew, preventive spray on wheat seedlings, visual disease rating; conditions: 100 = 100% disease control, 0 = no disease control relative to controls; for pest or weed control at 40 ppm: Blumeria graminis, 192 h
Text: General protocol for preparing test suspensions for Tests A-F: […] The resulting test suspensions were then used in Tests A-F. The test suspensions were sprayed to the point of run-off on the test plants. All results are for 200 ppm (equivalent to a rate of 500 g/ha) except where followed by “*” which indicates 40 ppm. The test suspension was sprayed to the point of run-off on wheat seedlings. The following day the seedlings were inoculated with a spore dust of Erysiphe graminis, (the causal agent of wheat powdery mildew) and incubated in a growth chamber at 20° C. for 8 days, after which time visual disease ratings were made. […] A dash (-) indicates no test results. All results are for 200 ppm except where followed by “*”, which indicates 40 ppm.

[6] = tested on: Puccinia recondita f. sp. tritici; experiment: Test B: wheat leaf rust, preventive spray on wheat seedlings, visual disease rating; conditions: 100 = 100% disease control, 0 = no disease control relative to controls; for pest or weed control at 40 ppm: 192 h
Text: General protocol for preparing test suspensions for Tests A-F: […] The resulting test suspensions were then used in Tests A-F. The test suspensions were sprayed to the point of run-off on the test plants. All results are for 200 ppm (equivalent to a rate of 500 g/ha) except where followed by “*” which indicates 40 ppm. The test suspension was sprayed to the point of run-off on wheat seedlings. The following day the seedlings were inoculated with a spore suspension of Puccinia recondita f. sp. tritici (the causal agent of wheat leaf rust) and incubated in a saturated atmosphere at 20° C. for 24 h, and then moved to a growth chamber at 20° C. for 7 days, after which time visual disease ratings were made. […] A dash (-) indicates no test results. All results are for 200 ppm except where followed by “*”, which indicates 40 ppm.

[7] = Alternaria solani, 40 ppm (marked *)
[8] = Parastagonospora nodorum, 40 ppm (marked *)
[9] = Botrytis cinerea, 40 ppm (marked *)

## COc1cc(OC)c(Cl)c(-c2c(-c3ccccc3F)nnc(C)c2-c2c(F)cc(F)cc2F)c1 [Compound 31, 4-(2-chloro-3,5-dimethoxyphenyl)-3-(2-fluorophenyl)-6-methyl-5-(2,4,6-trifluorophenyl)pyridazine]
[1]; [7]
  pest or weed control at 40 ppm: 100%
[2]; [8]
  pest or weed control at 40 ppm: 100%
[3]; 40 ppm (marked *)
  pest or weed control at 40 ppm: 99%
[4]; [9]
  pest or weed control at 40 ppm: 100%
[5]; 40 ppm (marked *)
  pest or weed control at 40 ppm: 97%
[6]; 40 ppm (marked *)
  pest or weed control at 40 ppm: 100%

## COc1cc(OC)c(Br)c(-c2c(-c3ccccc3F)nnc(C)c2-c2c(F)cc(F)cc2F)c1 [Compound 32]
[1]; 40 ppm (marked *)
  Test E rating (disease control, tomato early blight): 99* %
[2]; 40 ppm (marked *)
  Test D rating (disease control, wheat glume blotch): 99* %
[3]; 40 ppm (marked *)
  Test C rating (disease control, wheat leaf blotch): 98* %
[4]; 40 ppm (marked *)
  Test F rating (disease control, tomato Botrytis): 100* %
[5]; 40 ppm (marked *)
  Test A rating (disease control, wheat powdery mildew): 90* %
[6]; 40 ppm (marked *)
  Test B rating (disease control, wheat leaf rust): 100* %

## COc1cc(-c2c(-c3ccccc3F)nnc(C)c2-c2c(F)cc(F)cc2F)cc(OC)c1Cl [Compound 33]
[1]; 40 ppm (marked *)
  Test E rating (disease control, tomato early blight): 61* %
[2]; 40 ppm (marked *)
  Test D rating (disease control, wheat glume blotch): 0* %
[3]; 40 ppm (marked *)
  Test C rating (disease control, wheat leaf blotch): 95* %
[4]; 40 ppm (marked *)
  Test F rating (disease control, tomato Botrytis): 99* %
[5]; 40 ppm (marked *)
  Test A rating (disease control, wheat powdery mildew): 0* %
[6]; 40 ppm (marked *)
  Test B rating (disease control, wheat leaf rust): 97* %

## COc1cc(OC)cc(-c2c(-c3ccccc3)nnc(Cl)c2-c2c(F)cc(F)cc2F)c1 [Compound 34]
[1]; 200 ppm
  Test E rating (disease control, tomato early blight): 99%
[2]; 200 ppm
  Test D rating (disease control, wheat glume blotch): 93%
[3]; 200 ppm
  Test C rating (disease control, wheat leaf blotch): 100%
[4]; 200 ppm
  Test F rating (disease control, tomato Botrytis): 100%
[5]; 200 ppm
  Test A rating (disease control, wheat powdery mildew): 99%
[6]; 200 ppm
  Test B rating (disease control, wheat leaf rust): 100%

## COc1cc(OC)cc(-c2c(-c3ccccc3)nnc(C)c2-c2c(F)cc(F)cc2F)c1 [Compound 35, 4-(3,5-dimethoxyphenyl)-6-methyl-3-phenyl-5-(2,4,6-trifluorophenyl)pyridazine]
[1]; Alternaria solani, 200 ppm
  pest or weed control at 200 ppm: 99%
[2]; Parastagonospora nodorum, 200 ppm
  pest or weed control at 200 ppm: 95%
[3]; 40 ppm (marked *)
  pest or weed control at 40 ppm: 100%
[4]; Botrytis cinerea, 200 ppm
  pest or weed control at 200 ppm: 99%
[5]; 40 ppm (marked *)
  pest or weed control at 40 ppm: 90%
[6]; 40 ppm (marked *)
  pest or weed control at 40 ppm: 100%

## COc1cc(OC)c(Cl)c(-c2c(-c3ccccc3)nnc(C)c2-c2c(F)cc(F)cc2F)c1 [Compound 36, 4-(2-chloro-3,5-dimethoxyphenyl)-6-methyl-3-phenyl-5-(2,4,6-trifluorophenyl)pyridazine]
[1]; [7]
  pest or weed control at 40 ppm: 99%
[2]; [8]
  pest or weed control at 40 ppm: 100%
[3]; 40 ppm (marked *)
  pest or weed control at 40 ppm: 99%
[4]; [9]
  pest or weed control at 40 ppm: 99%
[5]; 40 ppm (marked *)
  pest or weed control at 40 ppm: 98%
[6]; 40 ppm (marked *)
  pest or weed control at 40 ppm: 99%

## COc1cc(OC)cc(-c2c(-c3ccccc3)nnc(C)c2-c2c(F)cc(OC)cc2F)c1 [Compound 37, 5-(2,6-difluoro-4-methoxyphenyl)-4-(3,5-dimethoxyphenyl)-6-methyl-3-phenylpyridazine]
[1]; [7]
  pest or weed control at 40 ppm: 99%
[2]; [8]
  pest or weed control at 40 ppm: 99%
[3]; 40 ppm (marked *)
  pest or weed control at 40 ppm: 98%
[4]; [9]
  pest or weed control at 40 ppm: 99%
[5]; 40 ppm (marked *)
  pest or weed control at 40 ppm: 69%
[6]; 40 ppm (marked *)
  pest or weed control at 40 ppm: 100%

## COc1cc(OC)cc(-c2c(-c3ccccc3F)nnc(Cl)c2-c2c(F)cc(F)c([Si](C)(C)C)c2F)c1 [Compound 38, 3-chloro-5-(3,5-dimethoxyphenyl)-6-(2-fluorophenyl)-4-[2,4,6-trifluoro-3-(trimethylsilyl)phenyl]pyridazine]
[1]; [7]
  pest or weed control at 40 ppm: 26%
[2]; [8]
  pest or weed control at 40 ppm: 0%
[3]; 40 ppm (marked *)
  pest or weed control at 40 ppm: 94%
[4]; [9]
  pest or weed control at 40 ppm: 99%
[5]; 40 ppm (marked *)
  pest or weed control at 40 ppm: 0%
[6]; 40 ppm (marked *)
  pest or weed control at 40 ppm: 98%

## Fc1cncc(-c2c(-c3ccccc3F)nnc(Cl)c2-c2c(F)cc(F)cc2F)c1 [Compound 39]
[1]; 40 ppm (marked *)
  Test E rating (disease control, tomato early blight): 100* %
[2]; 40 ppm (marked *)
  Test D rating (disease control, wheat glume blotch): 100* %
[3]; 40 ppm (marked *)
  Test C rating (disease control, wheat leaf blotch): 100* %
[4]; 40 ppm (marked *)
  Test F rating (disease control, tomato Botrytis): 100* %
[5]; 40 ppm (marked *)
  Test A rating (disease control, wheat powdery mildew): 100* %
[6]; 40 ppm (marked *)
  Test B rating (disease control, wheat leaf rust): 100* %

## COc1ccncc1-c1c(-c2ccccc2F)nnc(Cl)c1-c1c(F)cc(F)cc1F [Compound 40]
[1]; 40 ppm (marked *)
  Test E rating (disease control, tomato early blight): 93* %
[2]; 40 ppm (marked *)
  Test D rating (disease control, wheat glume blotch): 60* %
[3]; 40 ppm (marked *)
  Test C rating (disease control, wheat leaf blotch): 100* %
[4]; 40 ppm (marked *)
  Test F rating (disease control, tomato Botrytis): 100* %
[5]; 40 ppm (marked *)
  Test A rating (disease control, wheat powdery mildew): 73* %
[6]; 40 ppm (marked *)
  Test B rating (disease control, wheat leaf rust): 100* %

## Cc1nnc(-c2ccccc2F)c(-c2cncc(F)c2)c1-c1c(F)cc(F)cc1F [Compound 41]
[1]; 40 ppm (marked *)
  Test E rating (disease control, tomato early blight): 98* %
[2]; 40 ppm (marked *)
  Test D rating (disease control, wheat glume blotch): 98* %
[3]; 40 ppm (marked *)
  Test C rating (disease control, wheat leaf blotch): 100* %
[4]; 40 ppm (marked *)
  Test F rating (disease control, tomato Botrytis): 100* %
[5]; 40 ppm (marked *)
  Test A rating (disease control, wheat powdery mildew): 97* %
[6]; 40 ppm (marked *)
  Test B rating (disease control, wheat leaf rust): 100* %

## COc1ccncc1-c1c(-c2ccccc2F)nnc(C)c1-c1c(F)cc(F)cc1F [Compound 42]
[1]; 40 ppm (marked *)
  Test E rating (disease control, tomato early blight): 41* %
[2]; 40 ppm (marked *)
  Test D rating (disease control, wheat glume blotch): 0* %
[3]; 40 ppm (marked *)
  Test C rating (disease control, wheat leaf blotch): 100* %
[4]; 40 ppm (marked *)
  Test F rating (disease control, tomato Botrytis): 100* %
[5]; 40 ppm (marked *)
  Test A rating (disease control, wheat powdery mildew): 78* %
[6]; 40 ppm (marked *)
  Test B rating (disease control, wheat leaf rust): 99* %

## COc1cc(OC)c(Cl)c(-c2c(-c3ccccc3F)nnc(Cl)c2-c2c(F)cc(F)cc2F)c1 [Compound 43]
[1]; 40 ppm (marked *)
  Test E rating (disease control, tomato early blight): 99* %
[2]; 40 ppm (marked *)
  Test D rating (disease control, wheat glume blotch): 100* %
[3]; 40 ppm (marked *)
  Test C rating (disease control, wheat leaf blotch): 97* %
[4]; 40 ppm (marked *)
  Test F rating (disease control, tomato Botrytis): 100* %
[5]; 40 ppm (marked *)
  Test A rating (disease control, wheat powdery mildew): 99* %
[6]; 40 ppm (marked *)
  Test B rating (disease control, wheat leaf rust): 100* %

## COc1cncc(-c2c(-c3ccccc3F)nnc(Cl)c2-c2c(F)cc(F)cc2F)c1 [Compound 44, 3-chloro-6-(2-fluorophenyl)-5-(5-methoxy-3-pyridinyl)-4-(2,4,6-trifluorophenyl)pyridazine]
[1]; [7]
  pest or weed control at 40 ppm: 100%
[2]; [8]
  pest or weed control at 40 ppm: 100%
[3]; 40 ppm (marked *)
  pest or weed control at 40 ppm: 99%
[4]; [9]
  pest or weed control at 40 ppm: 100%
[5]; 40 ppm (marked *)
  pest or weed control at 40 ppm: 100%
[6]; 40 ppm (marked *)
  pest or weed control at 40 ppm: 99%

Source: patent publication US20110136762A1, “FUNGICIDAL PYRIDAZINES” (E.I. Du Pont de Nemours and Company, priority 2008, published 2011)
